Reference: patent EP4653001A1, “TREATMENT, DIAGNOSIS AND/OR PROGNOSIS OF MITOCHONDRIAL DISEASES” (Universidad Autónoma de Madrid, priority 2024, dated 2025)

Tests used:
primary neurons [1] = assay: Intracellular calcium mobilization (excitability) assay; assay type: cell-based, mouse; conditions: CI inhibition
Experimental: Neuronal functionality was measured by the Rhod-4 No Wash Calcium Assay Kit (Abcam, Cat No. ab112157), following the manufacturer's instructions for intracellular calcium assay. In short, culture medium was removed, and Rhod-4 dye containing buffer was gently added to cells, followed by incubation at 37 degrees for 30 min followed by 20 min at room temperature. For imaging and quantification of intracellular calcium mobilization, confocal images were acquired using a Zeiss LSM800 confocal microscope (Jena, Alemania) enabled with a 10X objective. Time lapse images of the confocal scan were acquired every 0.5 second over a ten-minute period. Neuronal cultures were treated with 100mM KCl (final concentration) added after the first 4 minutes to establish a baseline and observe the steady- state changes in calcium mobilization in response to the treatment. Acquired confocal images were post-processed using the free and open-source Fiji image processing software. Fluorescent intensity changes were quantified using fixed parameters across the entire set of captured images.

primary neurons [2] = assay: Neuron axon morphology (immunofluorescence); assay type: cell-based, mouse; conditions: CI inhibition, 100 nM 24 h, extensive axon degeneration
Experimental: (§1) Primary cultures of C57BL/6 mouse cortical neurons were prepared from embryos between embryonic days 16.5 and 17.5 and seeded onto pre-treated plates coated with Poly-L-lysine hydrobromide (500 µg/ml). We used Neurobasal medium without D-glucose and sodium pyruvate (ThermoFisher) to modulate D-glucose levels, depending on the experiment (2.5 mM, 5 mM, or 25 mM).
Neuron axon morphology was quantified in primary neurons exposed to DMSO or 100 nM piericidin for 24 h. Neurons were fixed with 4% paraformaldehyde for 10 min, blocked, and permeabilized in 0.1% Triton X-100 (Tx)-PBS with 10% fetal bovine serum for 15 minutes at room temperature. Then, neurons were incubated with the primary BIII-Tubulin antibody (1:500, ab78078, Abcam) in 0.1% Tx/10% FBS-PBS overnight at 4°C. Subsequently, wells were rinsed several times in PBS before applying the fluorochrome-conjugated secondary antibody (ThermoScientific) in 0.1% Tx/10% FBS-PBS for 1h at room temperature. Neurons were finally washed in PBS, and DAPI was added prior to the microscopic analysis. Acquired confocal images were quantified by measuring the BIII-Tubulin fluorescent integrated density and normalized by the number of DAPI-positive nuclei.

mouse cortical neurons = assay: PPP activity measurement in cortical neurons; assay type: cell-based
Experimental: as §1
The determination of pentose-phosphate pathway (PPP) activity was conducted by assessing the difference between 14CO2 production from 1-14C-glucose, which decarboxylates through the 6-phosphogluconate dehydrogenase-catalyzed reaction, and that of 6-^14C-glucose, which decarboxylates through the tricarboxylic acid cycle.
Increased lactate secretion is considered a good indicator of enhanced glycolytic rates, which is a common feature of ETC-inhibited cells as they switch from OXPHOS to glycolysis to maintain ATP levels. […] We culture 143B cells in the presence of Piericidin for 24 h and PPP activity and lactate release, as a proxy of glycolysis, were measured. As expected, lactate detection in the media was higher in CI-inhibited cells. […] Next, we wonder if in this context, glucose can be overused by glycolysis and therefore diverted away from the PPP. Diseases associated with impaired mitochondrial function negatively impact high energy demanding tissues such as the brain. As such, neurons that are highly sensitive to ETC inhibition also rely strongly on glucose metabolism. Thus, we used mouse cortical neurons to determine the rates of glycolysis and PPP as glucose levels become limiting. Control and Piericidin treated neurons where cultured in media containing supraphysiological (25 mM), physiological (5 mM) or subphysiological concentrations of glucose (2,5 mM). […] Decreased PPP activity under low glucose (2,5 mM) correlated with a rapid decline in NADPH/NADP+ levels in CI-inhibited cells. Conversely, glucose availability had no effect on ATP levels at this timepoint.

PC KO and ACLY KO cells = assay: Cell number / viability of PC KO and ACLY KO 143B cells; assay type: cell-based
Experimental: All cell lines, 143b, HeLa, U2OS, and transmitochondrial cybrids carrying mutation in CI (ND2), CIII (CytB) or CIV (Cox2) subunits, were maintained in DMEM high glucose (HyClone), 10% FBS and 1% P/S at 37°C with 5% CO2. Mitochondrial mutant cells were cultured with supplementation of 50 µg/mL uridine. The selected cancer cell lines with different levels of malic enzyme (HCC15, KYSE410, CAKI1, J82, MDAMB453, Colo320, NCIH1703) were obtained from the DSMZ-German Collection of Microorganisms and Cell Cultures GmbH and cultured in the same DMEM 10% FBS medium. OCI-Lys3 and RCH-ACV cell lines (cells in suspension), were obtained from the same repository and cultured in RPMI 10% FBS medium. Transfections for gain- and loss-of-function studies were performed according to the manufacturer's instructions using the polyfect reagent (Qiagen, 301107). For cell number and proliferation experiments, cells were seeded in 12 or 6-well plates and allowed to proliferate for the specified durations. Subsequently, cells were trypsinized and quantified using a hemocytometer (NanoEnTek, DHC-N01). Cell viability was quantified using propidium iodide (PI; 50 µg/ml) staining.
Generation of knockout cell lines using CRISPR-Cas9 technology was performed with the lenti-CRISPR v2 vector (Addgene #52961). Guide sequences are: • sgGFPT1, 5-[…]-3 (SEQ ID NO: 1); • sgG6PD, 5-[…]-3 (SEQ ID NO: 2); • sgPHGDH, 5-[…]-3 (SEQ ID NO: 3); • sgMPC1, 5-[…]-3 (SEQ ID NO: 4) • sgPC, 5-CAGGCCCGGAACACACGGA-3 (SEQ ID NO: 5); • sgACLY, 5-[…]-3 (SEQ ID NO: 6); • sgME1, 5-[…]-3 (SEQ ID NO: 7).
To assess the relative contribution of PC and ACLY to cell death phenotype in ETC deficient cells upon PPP inhibition, we treated PC KO and ACLY KO cells with Piericidin, G6PDi or both. A massive reduction in cell viability was observed as early as 48 h in both PC KO and ACLY KO cells after dual inhibition (Figure 3E), which correlated with a significant decrease in the intracellular levels of malate (Figure 3F). […]

## CC=C(C)C(O)C(C)C=C(C)C=CCC(C)=CCc1nc(OC)c(OC)c(O)c1C (centres unmarked) [Piericidin, Piericidin A]
Primary neurons [1]
  excitability response: diminished
Primary neurons [2]
  neuron morphology: significant morphological alterations
Mouse cortical neurons; 5 mM glucose, did not reach statistical significance
  PPP activity: trend towards reduced PPP activity
Mouse cortical neurons; limited glucose availability (2,5 mM), 100 nM, 16 h
  PPP activity: prominent drop
Mouse cortical neurons; neurons cultured in 25 mM glucose, 100 nM, 16 h
  PPP activity: significantly upregulation
PC KO and ACLY KO cells; ACLY KO cells
  cell death or cell proliferation: did not translate into increased cell death or impaired cell proliferation
PC KO and ACLY KO cells; PC KO cells, 100 nM, 72 h
  proliferation: proliferated normally
PC KO and ACLY KO cells; double ablation of PC and ACLY, 100 nM, 72 h
  sensitivity to ETC inhibition (cell number): sensitize
